Test results reported in patent publication US9636418B2 (priority 2013, dated 2017).
Several values for one entry are separate records, joined by “and”; a condition that tells them apart may be missing. Identical values can stand only once. Entries after “also recorded” stand apart in the source; their conditions may differ. Like-named read-outs stand apart in the source and are kept apart here.

Experiments:
male CD-1 mice [1] = conditions: mouse, in vivo
hNav1.7 [2] = target: T1, hNav1.7 (Homo sapiens, UniProt Q15858); assay: cell-based; assay type: cell-based; conditions: for 1.x/1.7, fully non-inactivated: hNav1.7 vs hNav1.7, fully non-inactivated; for 1.x/1.7, partially inactivated: hNav1.7 vs hNav1.7, partially inactivated; for block of hNav1.7 current: 100 pM peptide
T1 sequence (Q15858 whole entry): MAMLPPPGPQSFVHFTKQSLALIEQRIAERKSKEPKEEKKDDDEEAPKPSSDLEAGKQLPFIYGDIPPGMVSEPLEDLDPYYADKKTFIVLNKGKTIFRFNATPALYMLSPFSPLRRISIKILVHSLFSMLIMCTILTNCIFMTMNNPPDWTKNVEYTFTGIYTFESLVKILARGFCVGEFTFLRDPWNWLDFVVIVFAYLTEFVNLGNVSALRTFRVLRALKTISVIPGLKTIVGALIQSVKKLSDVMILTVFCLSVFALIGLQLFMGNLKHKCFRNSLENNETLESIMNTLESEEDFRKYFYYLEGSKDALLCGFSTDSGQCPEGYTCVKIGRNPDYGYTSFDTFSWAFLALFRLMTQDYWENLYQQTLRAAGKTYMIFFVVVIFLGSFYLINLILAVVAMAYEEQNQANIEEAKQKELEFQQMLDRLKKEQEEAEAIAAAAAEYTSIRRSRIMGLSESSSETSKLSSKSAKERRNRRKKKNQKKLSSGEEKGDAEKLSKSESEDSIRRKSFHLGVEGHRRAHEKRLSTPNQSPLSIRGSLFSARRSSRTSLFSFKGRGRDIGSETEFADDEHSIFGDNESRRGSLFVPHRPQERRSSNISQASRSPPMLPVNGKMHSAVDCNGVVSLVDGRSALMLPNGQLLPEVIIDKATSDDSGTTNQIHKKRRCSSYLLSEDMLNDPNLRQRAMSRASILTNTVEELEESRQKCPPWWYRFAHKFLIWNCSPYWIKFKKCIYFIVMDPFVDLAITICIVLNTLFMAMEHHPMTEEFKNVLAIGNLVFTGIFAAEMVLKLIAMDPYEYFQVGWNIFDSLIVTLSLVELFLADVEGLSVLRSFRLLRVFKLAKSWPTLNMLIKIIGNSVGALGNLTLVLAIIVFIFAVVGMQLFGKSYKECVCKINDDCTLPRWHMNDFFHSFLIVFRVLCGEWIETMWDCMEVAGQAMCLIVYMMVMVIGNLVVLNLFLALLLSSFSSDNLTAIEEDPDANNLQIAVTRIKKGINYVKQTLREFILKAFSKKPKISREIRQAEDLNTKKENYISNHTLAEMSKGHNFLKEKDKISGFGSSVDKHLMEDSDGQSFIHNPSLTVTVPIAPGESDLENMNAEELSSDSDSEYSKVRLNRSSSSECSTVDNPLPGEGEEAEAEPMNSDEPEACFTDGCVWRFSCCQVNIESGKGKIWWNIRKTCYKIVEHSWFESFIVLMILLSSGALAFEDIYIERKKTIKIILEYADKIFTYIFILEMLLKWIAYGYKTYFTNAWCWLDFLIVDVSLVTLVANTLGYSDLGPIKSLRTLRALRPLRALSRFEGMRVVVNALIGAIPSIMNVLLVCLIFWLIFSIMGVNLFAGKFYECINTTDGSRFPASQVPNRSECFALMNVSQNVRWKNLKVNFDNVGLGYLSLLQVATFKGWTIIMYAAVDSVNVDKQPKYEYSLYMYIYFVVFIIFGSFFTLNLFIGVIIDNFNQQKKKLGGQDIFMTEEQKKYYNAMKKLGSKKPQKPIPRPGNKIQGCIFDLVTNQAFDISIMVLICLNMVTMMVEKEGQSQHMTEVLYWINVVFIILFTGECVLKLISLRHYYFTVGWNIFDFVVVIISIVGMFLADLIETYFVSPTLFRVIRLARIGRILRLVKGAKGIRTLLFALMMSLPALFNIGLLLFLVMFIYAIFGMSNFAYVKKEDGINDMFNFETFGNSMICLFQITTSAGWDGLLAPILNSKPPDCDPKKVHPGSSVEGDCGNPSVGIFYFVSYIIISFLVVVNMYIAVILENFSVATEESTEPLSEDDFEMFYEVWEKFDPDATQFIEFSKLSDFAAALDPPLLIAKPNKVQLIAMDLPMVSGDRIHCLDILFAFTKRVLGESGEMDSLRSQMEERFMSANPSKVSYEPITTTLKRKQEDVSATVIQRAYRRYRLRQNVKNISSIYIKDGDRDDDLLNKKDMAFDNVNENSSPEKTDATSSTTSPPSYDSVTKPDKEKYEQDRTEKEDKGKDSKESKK

hNav1.5 [3] = target: T2, hNav1.5 (Homo sapiens, UniProt Q14524); assay: cell-based; conditions: PatchXpress; * = at high concentrations compound would wash off slowly or not at all; read-out: PX hNav1.5 Tonic IC50
hNav1.5 [4] = target: T2, hNav1.5; assay: cell-based; assay type: cell-based
hNav1.3 = hNav1.3 (Homo sapiens, UniProt Q9NY46); assay type: cell-based
[5] = system: TTX-sensitive Nav channels in mouse DRG neuron; assay type: cell-based; conditions: for 1.x/1.7, partially inactivated: mTTX-S vs hNav1.7, partially inactivated; for potency relative to JzTx-V (more potent): TTX-sensitive current
hNav1.4 [6] = target: T3, hNav1.4 (Homo sapiens, UniProt P35499); assay type: cell-based
T3 sequence (P35499 whole entry): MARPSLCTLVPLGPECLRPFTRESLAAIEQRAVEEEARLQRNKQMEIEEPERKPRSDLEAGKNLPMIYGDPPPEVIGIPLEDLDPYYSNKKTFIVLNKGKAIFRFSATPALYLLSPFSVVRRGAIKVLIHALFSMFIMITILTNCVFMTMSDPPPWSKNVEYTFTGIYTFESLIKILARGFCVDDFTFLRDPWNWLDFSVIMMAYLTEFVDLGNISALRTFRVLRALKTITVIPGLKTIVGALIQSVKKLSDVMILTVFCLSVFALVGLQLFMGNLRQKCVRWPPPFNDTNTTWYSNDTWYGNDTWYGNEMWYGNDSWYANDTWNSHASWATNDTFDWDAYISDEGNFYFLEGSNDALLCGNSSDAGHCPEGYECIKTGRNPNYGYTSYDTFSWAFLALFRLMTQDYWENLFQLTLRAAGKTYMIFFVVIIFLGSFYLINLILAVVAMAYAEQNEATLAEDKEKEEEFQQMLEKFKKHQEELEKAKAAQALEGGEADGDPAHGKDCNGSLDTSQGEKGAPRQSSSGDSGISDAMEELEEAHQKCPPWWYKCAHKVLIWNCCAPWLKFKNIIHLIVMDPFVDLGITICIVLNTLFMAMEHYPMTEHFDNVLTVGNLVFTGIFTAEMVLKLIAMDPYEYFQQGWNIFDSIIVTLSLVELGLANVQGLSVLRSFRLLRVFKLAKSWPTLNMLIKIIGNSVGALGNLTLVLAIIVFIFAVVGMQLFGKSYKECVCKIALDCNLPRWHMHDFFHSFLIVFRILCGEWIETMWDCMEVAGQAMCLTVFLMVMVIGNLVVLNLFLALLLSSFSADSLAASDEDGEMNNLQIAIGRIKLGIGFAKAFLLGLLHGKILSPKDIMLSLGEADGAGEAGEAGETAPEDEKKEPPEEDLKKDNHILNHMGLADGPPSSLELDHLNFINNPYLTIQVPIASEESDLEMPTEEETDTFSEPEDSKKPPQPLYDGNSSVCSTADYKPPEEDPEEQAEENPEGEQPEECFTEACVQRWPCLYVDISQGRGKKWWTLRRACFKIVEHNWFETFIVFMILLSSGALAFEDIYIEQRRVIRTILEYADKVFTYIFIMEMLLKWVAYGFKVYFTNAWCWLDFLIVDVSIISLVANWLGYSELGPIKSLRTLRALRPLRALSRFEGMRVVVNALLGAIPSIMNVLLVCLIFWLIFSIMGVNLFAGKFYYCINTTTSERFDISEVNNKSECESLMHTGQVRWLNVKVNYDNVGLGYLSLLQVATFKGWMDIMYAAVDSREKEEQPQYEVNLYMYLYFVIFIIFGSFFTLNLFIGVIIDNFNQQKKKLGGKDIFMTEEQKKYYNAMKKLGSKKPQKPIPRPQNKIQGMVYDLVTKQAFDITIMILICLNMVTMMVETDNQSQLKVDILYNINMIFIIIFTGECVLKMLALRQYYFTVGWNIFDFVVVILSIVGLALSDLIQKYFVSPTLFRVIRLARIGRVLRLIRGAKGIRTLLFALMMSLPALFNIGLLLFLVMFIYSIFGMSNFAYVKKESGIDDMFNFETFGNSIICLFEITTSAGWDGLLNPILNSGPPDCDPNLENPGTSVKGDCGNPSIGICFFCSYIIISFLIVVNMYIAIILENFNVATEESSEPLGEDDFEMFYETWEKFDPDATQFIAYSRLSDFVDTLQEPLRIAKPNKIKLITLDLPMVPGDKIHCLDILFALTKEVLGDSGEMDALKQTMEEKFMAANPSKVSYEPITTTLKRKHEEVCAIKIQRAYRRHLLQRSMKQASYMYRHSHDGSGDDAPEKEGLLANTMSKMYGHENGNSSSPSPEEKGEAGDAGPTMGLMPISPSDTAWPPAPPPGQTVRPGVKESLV

hNav1.8 [7] = assay: cell-based; assay type: cell-based, human
hNav1.8 [8] = target: hNav1.8 (Homo sapiens, UniProt Q9Y5Y9); assay: cell-based; assay type: cell-based; conditions: WCPC, n=2
hNav1.5 [9] = target: T2, hNav1.5; assay: cell-based; conditions: IonWorks Quattro; read-out: IC50 Nav1.5
hNav1.7 [10] = target: T1, hNav1.7; assay: cell-based; conditions: IonWorks Quattro; read-out: IC50 Nav1.7
hNav1.4 [11] = target: T3, hNav1.4; assay: cell-based; conditions: PatchXpress; * = at high concentrations compound would wash off slowly or not at all; read-out: PX hNav1.4 Tonic IC50
male Sprague-Dawley rats = assay type: in vivo, rat; conditions: rat, in vivo
male CD-1 mice [12] = conditions: mouse, in vivo; remark: listed apart in the source

Cc1cccc(C)c1OCC(C)N (stereo not drawn) [mexilitine, reference compound]
thermal latency / thermal hyperalgesia (male CD-1 mice [1]): significantly reverse thermal hyperalgesia

CC[C@H](C)[C@H](NC(=O)[C@@H](NC(=O)[C@H](CCCCN)NC(=O)[C@H](CCCNC(=N)N)NC(=O)[C@@H]1CSSC[C@@H]2NC(=O)[C@H](C)NC(=O)[C@H](CCCNC(=N)N)NC(=O)[C@H](CCCCN)NC(=O)[C@H](CO)NC(=O)[C@H](CC(=O)O)NC(=O)[C@@H]3CSSC[C@H](NC(=O)[C@H](CCCNC(=N)N)NC(=O)[C@H](CC(C)C)NC(=O)CNC(=O)[C@H](CCC(=O)O)NC(=O)[C@H](CSSC[C@H](NC(=O)[C@@H](N)Cc4ccc(O)cc4)C(=O)N[C@@H](CCC(N)=O)C(=O)N[C@@H](CCCCN)C(=O)N[C@@H](Cc4c[nH]c5ccccc45)C(=O)N[C@@H](CCSC)C(=O)N[C@@H](Cc4c[nH]c5ccccc45)C(=O)N[C@@H]([C@@H](C)O)C(=O)N3)NC2=O)C(=O)N[C@@H](CCCCN)C(=O)N[C@@H](CC(C)C)C(=O)N[C@@H](Cc2c[nH]c3ccccc23)C(=O)N1)[C@@H](C)CC)C(N)=O [compound 2]
1.x/1.7, fully non-inactivated (hNav1.7 [2]): 1 | 1.x/1.7, partially inactivated (hNav1.7 [2]): 1 | IC50 (hNav1.5 [3]): 1.6 µM and 2.21 µM and 3.25 µM | IC50 (hNav1.5 [4]; WCPC, hNav1.5, fully non-inactivated, n=2): 0.882 µM | 1.x/1.7, fully non-inactivated (hNav1.5 [4]; hNav1.5 vs hNav1.7, fully non-inactivated): 6230 | 1.x/1.7, partially inactivated (hNav1.5 [4]; hNav1.5 vs hNav1.7, partially inactivated): 2641 | 1.x/1.7, fully non-inactivated (hNav1.3; hNav1.3 vs hNav1.7, fully non-inactivated): 99 | 1.x/1.7, partially inactivated (hNav1.3; hNav1.3 vs hNav1.7, partially inactivated): 76 | 1.x/1.7, fully non-inactivated ([5]; mTTX-S vs hNav1.7, fully non-inactivated): 530 | 1.x/1.7, partially inactivated [5]: 111 | 1.x/1.7, fully non-inactivated (hNav1.4 [6]; hNav1.4 vs hNav1.7, fully non-inactivated): 75 | 1.x/1.7, partially inactivated (hNav1.4 [6]; hNav1.4 vs hNav1.7, partially inactivated): 58 | 1.x/1.7, fully non-inactivated (hNav1.8 [7]; hNav1.8 vs hNav1.7, fully non-inactivated): 5724 | 1.x/1.7, partially inactivated (hNav1.8 [7]; hNav1.8 vs hNav1.7, partially inactivated): 3282 | IC50 (hNav1.8 [8]; hNav1.8, fully non-inactivated, read-out: Mean IC50, fully non-inactivated): 0.81 µM | IC50 (hNav1.8 [8]; hNav1.8, partially inactivated, read-out: Mean IC50, partially inactivated): 0.53 µM | IC50 (hNav1.5 [9]): 7.2 µM and > 7 µM

C#CC[C@H](N)C(=O)N[C@@H](Cc1ccc(O)cc1)C(=O)N[C@H]1CSSC[C@@H]2NC(=O)[C@@H]3CSSC[C@@H](C(=O)N[C@@H](CCCNC(=N)N)C(=O)N[C@@H](CCCCN)C(=O)N[C@H](C(=O)N[C@H](C(N)=O)[C@@H](C)CC)[C@@H](C)CC)NC(=O)[C@H](Cc4c[nH]c5ccccc45)NC(=O)[C@H](CC(C)C)NC(=O)[C@H](CCCCN)NC(=O)[C@H](CSSC[C@H](NC(=O)[C@H]([C@@H](C)O)NC(=O)[C@H](Cc4c[nH]c5ccccc45)NC(=O)[C@H](CCCC)NC(=O)[C@H](Cc4c[nH]c5ccccc45)NC(=O)[C@H](CCCCN)NC(=O)[C@H](CCC(N)=O)NC1=O)C(=O)N[C@@H](CC(=O)O)C(=O)N[C@@H](CO)C(=O)N[C@@H](CCCCN)C(=O)N[C@@H](CCCNC(=N)N)C(=O)N[C@@H](C)C(=O)N3)NC(=O)[C@H](CCCNC(=N)N)NC(=O)[C@H](CC(C)C)NC(=O)CNC(=O)[C@H](CCC(=O)O)NC2=O [compound 425]
1.x/1.7, fully non-inactivated (hNav1.7 [2]): 1 | 1.x/1.7, partially inactivated (hNav1.7 [2]): 1 | IC50 (hNav1.7 [10]): 0.008 µM and 0.013 µM | IC50 (hNav1.5 [3]): 0.97 µM and 0.7 µM | IC50 (hNav1.4 [11]): 0.004 µM and 0.0025 µM | 1.x/1.7, partially inactivated [5]: 6335

C#CC[C@H](N)C(=O)N[C@@H](Cc1ccc(O)cc1)C(=O)N[C@H]1CSSC[C@@H]2NC(=O)[C@@H]3CSSC[C@@H](C(=O)N[C@@H](CCCNC(=N)N)C(=O)N[C@@H](CCCCN)C(=O)N[C@H](C(=O)N[C@H](C(N)=O)[C@@H](C)CC)[C@@H](C)CC)NC(=O)[C@H](Cc4c[nH]c5ccccc45)NC(=O)[C@H](CC(C)C)NC(=O)[C@H](CCCCN)NC(=O)[C@H](CSSC[C@H](NC(=O)[C@H]([C@@H](C)O)NC(=O)[C@H](Cc4c[nH]c5ccccc45)NC(=O)[C@H](CCCC)NC(=O)[C@H](Cc4c[nH]c5ccccc45)NC(=O)[C@H](CCCCN)NC(=O)[C@H](CCC(N)=O)NC1=O)C(=O)N[C@@H](CC(=O)O)C(=O)N[C@@H](CO)C(=O)N[C@@H](CCCCN)C(=O)N[C@@H](CCCNC(=N)N)C(=O)N[C@@H](C)C(=O)N3)NC(=O)[C@H](CCCNC(=N)N)NC(=O)[C@H](CC(C)C)NC(=O)CNC(=O)[C@H](CCC(=O)O)NC2=O [SEQ ID NO: 425, Pra-[Nle6]JzTx-V]
block of hNav1.7 current (hNav1.7 [2]; held at −77 mV (partially inactivated state)): fully blocked Nav1.7 current; also recorded: complete inhibition | block of hNav1.7 current (hNav1.7 [2]; held at −140 mV (fully non-inactivated state)): fully blocked Nav1.7 current; also recorded: complete inhibition | block of TTX-sensitive Nav current [5]: blocked most TTX-sensitive Nav current | inhibition of TTX-sensitive sodium current ([5]; 1 nM peptide (as printed in text), mouse DRG neurons): almost complete inhibition | potency relative to JzTx-V (more potent) ([5]; mouse DRG neurons): about 3 fold

CN1CC[C@]23c4c5ccc(O)c4O[C@H]2[C@@H](O)C=C[C@H]3[C@H]1C5 [morphine]
formalin response, second phase (5-40 min) (male Sprague-Dawley rats): significantly reduce pain response; also recorded: significantly reduced | time spent lifting and/or licking the affected paw, second phase (5-40 min) (male CD-1 mice [12]): significantly reduce pain response; also recorded: significantly reduced the pain response; also recorded: did significantly reduce

C#CC[C@@H]1NC(=O)[C@@H]2CSSC[C@H](NC(=O)[C@H](Cc3ccc(O)cc3)NC(=O)[C@@H](N)CC#N)C(=O)N[C@@H](CCC(N)=O)C(=O)N[C@@H](CCCCN)C(=O)N[C@@H](Cc3c[nH]c4ccccc34)C(=O)N[C@@H](CCCC)C(=O)N[C@@H](Cc3c[nH]c4ccccc34)C(=O)N[C@@H]([C@@H](C)O)C(=O)N[C@H]3CSSC[C@H](NC(=O)[C@H](CCCNC(=N)N)NC(=O)[C@H](CC(C)C)NC(=O)CNC1=O)C(=O)N[C@@H](CCCCN)C(=O)N[C@@H](CC(C)C)C(=O)N[C@@H](Cc1c[nH]c4ccccc14)C(=O)N[C@H](C(=O)N[C@@H](CCCNC(=N)N)C(=O)N[C@@H](CCCCN)C(=O)N[C@@H](CCC(=O)O)C(=O)N[C@H](C(N)=O)[C@@H](C)CC)CSSC[C@H](NC(=O)[C@H](C)NC(=O)[C@H](CCCNC(=N)N)NC(=O)[C@H](CCCCN)NC(=O)[C@H](CO)NC(=O)[C@H](CC(=O)O)NC3=O)C(=O)N2 [SEQ ID NO: 395, CyA-[Nle6,Pra17,Glu28]JzTx-V(1-29)]
block of TTX-sensitive Nav current ([5]; 300 nM SEQ ID NO:395, held at −77 mV): fully blocked TTX-sensitive Nav current; also recorded: complete inhibition | potency relative to JzTx-V (more potent) ([5]; mouse DRG neurons): equipotent

C#CC[C@H](N)C(=O)NCCCC[C@@H]1NC(=O)[C@H](CCCNC(=N)N)NC(=O)[C@H](CCCCN)NC(=O)[C@H](CO)NC(=O)[C@H](CC(=O)O)NC(=O)[C@@H]2CSSC[C@@H]3NC(=O)[C@H](CCCNC(=N)N)NC(=O)[C@H](CC(C)C)NC(=O)CNC(=O)[C@H](CCC(=O)O)NC(=O)[C@H](CSSC[C@H](NC(=O)[C@H](Cc4ccc(O)cc4)NC(=O)[C@@H](N)CC#N)C(=O)N[C@@H](CCC(N)=O)C(=O)N[C@@H](CCCCN)C(=O)N[C@@H](Cc4c[nH]c5ccccc45)C(=O)N[C@@H](CCCC)C(=O)N[C@@H](Cc4c[nH]c5ccccc45)C(=O)N[C@@H]([C@@H](C)O)C(=O)N2)NC(=O)[C@H](CSSC[C@@H](C(=O)N[C@@H](CCCNC(=N)N)C(=O)N[C@@H](CCCCN)C(=O)N[C@@H](CCC(=O)O)C(=O)N[C@H](C(N)=O)[C@@H](C)CC)NC(=O)[C@H](Cc2c[nH]c4ccccc24)NC(=O)[C@H](CC(C)C)NC(=O)[C@H](CCCCN)NC3=O)NC1=O [SEQ ID NO: 392, CyA-[Nle6,Lys(Pra)14,Glu28]JzTx-V(1-29)]
potency relative to JzTx-V (less potent) [5]: about 3 fold | block of TTX-sensitive Nav current ([5]; 300 nM SEQ ID NO:392, held at −88 mV): blocked most TTX-sensitive Nav current; also recorded: almost complete inhibition

NC1=N[C@H](O)[C@H]2[C@H]3O[C@]4(O)O[C@@H]([C@@H](O)[C@@]2(N1)[C@@H]4O)[C@]3(O)CO [TTX, tetrodotoxin, reference compound]
block of TTX-sensitive Nav current [5]: completely blocked TTX-sensitive Nav current
